In PMC2409895, “Antitumour efficacy of VEGFR2 tyrosine kinase inhibitor correlates with expression of VEGF and its receptor VEGFR2 in tumour models” (British Journal of Cancer, 2004):

Assays:
[1] = tested on: HUVEC grown in presence of VEGF; experiment: VEGF-induced HUVEC proliferation (BrdU incorporation); format: cell-based; conditions: Homo sapiens, VEGF 10 ng ml^−1, 72 h
Procedure: (§1) Effect of kinase inhibitors on cell proliferation was measured using BrdU incorporation method using commercially available kits (Roche Diagnostics, Indianapolis, IN, USA). Briefly, HUVEC were seeded in a medium containing 5% FBS in type 1 Collagen-coated 96-well plates and incubated overnight at 37°C, 5% CO2. The medium was aspirated from the cells, and various concentrations of kinase inhibitors in serum-free medium were added to each well. After 30 min, VEGF (10 ng ml^−1) or bFGF (0.3 ng ml^−1) was added to the wells. Cells were incubated for an additional 72 h and BrdU (10 μM) was added during the last 18–24 h of incubation. Data were fitted with a curve described by the equation, y=Vmax × (1−(x/(K+x))), where K is equal to the IC50.

human VEGFR2 kinase = molecular target: T1, human VEGFR2 kinase (Homo sapiens, UniProt P35968); experiment: VEGFR2 kinase assay (HTRF); format: biochemical; conditions: Table 1
T1 construct: GST-fusion protein encoding the catalytic carboxyl-terminus of human VEGFR kinase 1, 2, or 3; made in house; host or cells: baculovirus expression system
T1 sequence (P35968 834-1162 limits assumed): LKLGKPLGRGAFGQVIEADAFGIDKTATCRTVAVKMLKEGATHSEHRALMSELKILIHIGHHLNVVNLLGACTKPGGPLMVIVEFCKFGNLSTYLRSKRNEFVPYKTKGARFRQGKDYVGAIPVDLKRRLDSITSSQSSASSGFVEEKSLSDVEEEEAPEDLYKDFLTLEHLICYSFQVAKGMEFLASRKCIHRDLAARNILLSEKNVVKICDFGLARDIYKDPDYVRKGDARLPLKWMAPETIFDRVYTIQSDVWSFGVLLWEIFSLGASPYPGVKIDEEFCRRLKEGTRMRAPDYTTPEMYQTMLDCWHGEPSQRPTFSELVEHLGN
Procedure: Vascular endothelial growth factor receptor kinase assays were carried out in a homogenous time-resolved fluorescence (HTRF) format in 384-well microtitre plates using a purified, baculovirus-expressed GST-fusion protein encoding the catalytic carboxyl-terminus of human VEGFR kinase 1, 2, or 3. Reactions were initiated by the addition of 10 μl of activated VEGFR kinase (1 nM, 0.1 M HEPES pH 7.5, 0.1 mg ml^−1 BSA, and 0.30 mM DTT) to 10 μl of substrate (360 nM biotin-aminohexyl-EEEEYFELVAKKKK-NH2 peptide, 75 μM ATP, 10 mM MgCl2) and 1 μl of small molecule inhibitor at various concentrations. Plates were incubated at room temperature for 60 min, and the reaction was stopped by the addition of 20 μl 100 mM EDTA. Homogenous time-resolved fluorescence reagents (20 μl 15 nM streptavidin-linked allophycocyanin, 1 nM europium-labelled anti-phosphotyrosine antibody in 0.1 M HEPES, pH 7.5, 0.1 mg ml^−1 BSA) were added and plates were incubated for a minimum of 10 min. The fluorescence at 665 nm was measured with a Victor plate reader (Wallac, Shelton, CT, USA) using a time delay of 50 μs. […] Data were fitted with a curve described by: y=((Vmax × x)/(K+x)+Y2), where Vmax is the upper asymptote, Y2 is the Y intercept, and K is the IC50.

[2] = tested on: HUVEC grown in presence of bFGF; experiment: bFGF-induced HUVEC proliferation (BrdU incorporation); format: cell-based; conditions: Homo sapiens, bFGF 0.3 ng ml^−1, 72 h
Procedure: as §1

- IC50 (human VEGFR2 kinase): 8 nM
Structure (SMILES): COc1cc(Nc2nccc(Nc3ccc4c(C)n[nH]c4c3)n2)cc(OC)c1OC [GW612286, N^4-(3-methyl-1H-indazol-6-yl)-N^2-(3,4,5-trimethoxyphenyl)pyrimidine-2,4-diamine]
- IC50 [1]: 180 nM
- IC50 [2]: 3630 nM
